# Laboratory results as given in patent US20130261191A1, “USE OF ESSENTIAL OIL COMPOUNDS AS HISTOMONASTAT” (DSM IP ASSETS B.V., priority 2007, published 2013).
# Test system: Histomonas meleagridis
# Assay: In vitro lethal activity (minimal lethal concentration) towards Histomonas meleagridis culture, Trypan blue vital coloration
# Format: cell-based
# Conditions: lowest dilution in which no live organisms were observed; H. meleagridis culture 10^6 parasites/ml, 39° C., anaerobic
# Protocol: The in vitro activity of the several essential oil compounds was assessed using the following technique. Aliquots of 1 ml of H. meleagridis culture (10^6 parasites/ml) were incubated anaerobicaly for 24 h at 39° C. Twelve two-fold dilutions of a stock solution of each compound were prepared in 96-well U bottom plates (Prolabo, Lyon, France) in Tween 80 (Sigma, L'Isle d'Abeau, France) and added to the parasites. The initial dilution was 2% ([…]). After incubation for 24 h and 48 h, the number of live parasite in each culture was estimated by vital coloration with Trypan blue 0.4% (Gibco, BRL Life technology, Cergy Pontoise, France). The lowest dilution in which no live organisms were observed was defined as the minimal lethal concentration (MLC).
row,SMILES,minimal lethal concentration (MLC) [ppm]
1,"O=C/C=C/c1ccccc1 [cinnamaldehyde, trans-]",250
2,"Cc1ccc(C(C)C)cc1 [cymene, p-]",500
3,C=CC(C)(O)CCC=C(C)CCC=C(C)C (stereo not drawn) [nerolidol],125
